Measurements from the METLIN SMRT retention time set (Domingo-Almenara et al. 2019).

Test: gradient 5% acetonitrile 3 min, to 50% in 2 min, to 85% in 15 min, held 3 min, 100 µL/min
Conditions: column: Zorbax Extend-C18 2.1 x 50 mm; eluents: water / acetonitrile, 0.1% formic acid
Procedure, shortened: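 Retention time was recorded from adduct peaks, which were picked computationally and each inspected manually. Pure standards ran in mixtures of ~100 molecules on HPLC coupled to a quadrupole time-of-flight mass spectrometer, in positive and negative ionization mode, through a Zorbax Extend-C18 column (2.1 × 50 mm, 1.8 μm) at 100 μL/min. Eluents were water and acetonitrile, each with 0.1% formic acid.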

| SMILES | RP-LC retention time [s] |
| --- | --- |
| COc1cc(NC(=O)N2CCC(n3c(CC(C)C)nc4cccnc43)CC2)cc(OC)c1OC | 662 |
| CC#C[C@@H](CC(=O)O)c1ccc(OCc2ccc(CN3CCC4(C=Cc5ccccc54)CC3)s2)cc1 | 915 |
| Cc1nc2ccn(Cc3ccco3)c(=O)c2cc1C(=O)NCCC1=CCCCC1 | 828 |
| COC(=O)c1sccc1NC(=O)NCC(c1ccc(OC)c(OC)c1)c1c[nH]c2ccccc12 (configuration not stated) | 978 |
| Cc1ccccc1Cc1noc(-c2nc(-c3ccccc3F)no2)n1 | 1180 |
| Cc1ccc2c(Nc3ccc(C)c(C)c3)c(C(=O)N3CCCC(C)C3)cnc2n1 (configuration not stated) | 681 |
| Cc1cc2[nH]c(C(=O)Nc3cc(F)c(F)cc3F)c(CN(C)C)c2s1 | 664 |
| CCCCNC(=O)C1CCN(c2cc(N3CCCCC3)ncn2)CC1 | 642 |
| CCN1C(=O)c2ccccc2Oc2ccc(C(=O)NCc3ccc(C)cc3)cc21 | 958 |
| COCCn1c(CCCC(=O)NCc2cccnc2)nc2cccnc21 | 534 |
| O=C(NCc1ccccc1)NCC1Cn2cccc2C(=O)N1Cc1ccccc1 (configuration not stated) | 782 |
| O=C1C(N2CCN(S(=O)(=O)c3ccc(Cl)cc3)CC2)CCN1CCc1ccccc1 (configuration not stated) | 718 |
| CC(C)c1ccc(S(=O)(=O)N2CC(=O)N(C3CCCC3)C3(CCCCC3)C2)cc1 | 1330 |
| Cc1ccc(-c2cc(C(N)=O)c3ccccc3n2)cc1 | 784 |
| Cc1cc(-c2nnc(-c3ccccc3)o2)c(C)n1CC(=O)Nc1ccc(F)c(F)c1 | 1010 |
| O=C(NCc1ccc(F)cc1)c1cn2c(n1)COCC2 | 631 |
| O=C(NC1CCCCCC1)C1CCN(S(=O)(=O)c2cc(C(=O)N3CCCC3)cs2)CC1 | 820 |
| O=S(=O)(NCc1nc(-c2ccc(-c3csc(C4CC4)n3)cc2)no1)c1ccccc1 | 1100 |
| CC1CCN(C(=O)c2nnc(-c3ccc(S(=O)(=O)N4CCCC4)cc3)o2)CC1 | 952 |
| CC1CN(c2ccc(Cl)cc2)c2nc3c(c(=O)n(CC(=O)O)c(=O)n3C)n2C1 (configuration not stated) | 790 |
| O=C(CSc1ccc(N2CCCC(C(=O)NC3CC3)C2)nn1)NCc1cc(F)cc(F)c1 (configuration not stated) | 642 |
| O=S(=O)(c1ccccc1F)N1CCN(Cc2cccc(F)c2)C2(CCOCC2)C1 | 807 |

| SMILES | RP-LC retention time [s] |
| --- | --- |
| Cc1ccc(C)c(S(=O)(=O)N2CCc3nc(-c4ccccc4)ncc3C2)c1 | 1170 |
| O=C(Nc1cccc(C(F)(F)F)c1)c1cc2ncc(Br)cn2n1 | 982 |
| CCN1C(=O)CCc2cc(NC(=O)c3cncc(Br)c3)ccc21 | 739 |
| O=C(CCC1CCCC1)N1CCc2c([nH]c3ccccc23)C1c1ccc(Cl)cc1 (configuration not stated) | 1060 |
| Cc1noc(/C=C\c2ccc(S(=O)(=O)N3CCN(c4ncccn4)CC3)cc2)c1NC(=O)C1CC1 | 849 |
| Cc1ccc(CN2C(=O)C3CCCCC3C2=O)cc1S(=O)(=O)N1CCN(c2ccccn2)CC1 (configuration not stated) | 724 |
| Cc1ccc(CCNC(=O)c2ccc3c(c2)N(C)C(=O)C2CCCCN32)cc1 (configuration not stated) | 947 |
| CN(CC(=O)N1CCN(C2CCCC2)CC1)S(=O)(=O)c1ccc2c(c1)CCCC(=O)N2 | 588 |
| COC[C@@H]1CN(Cc2ccc(OC)cc2OC)C[C@H]1c1ccncc1 | 590 |
| CC(C)n1cnc(S(=O)(=O)N2CCCC(C(=O)NCc3ccccc3)C2)c1 (configuration not stated) | 702 |
| Cc1ccc(-n2nc(N3CCN(C(=O)Nc4cccc(C)c4)CC3)ccc2=O)cc1 | 820 |
| COc1cc(OC)cc(N2N=NC3C(=O)N(c4ccc(F)cc4)C(=O)C32)c1 (configuration not stated) | 907 |
| CCC1CN2C=Nc3oc(C)c(C(=O)Nc4ccc(C)c(F)c4)c3C2=N1 (configuration not stated) | 689 |
| CCn1cc(C)c(C(=O)O)c1CC(=O)NCCN1CCc2ccccc2C1 | 629 |
| CCn1cc(-c2ccc(C)cc2)cc1C(=O)NCCCN1CCCC1=O | 856 |
| CC(=O)c1ccc2c(c1)N(CCCN(C)C)c1ccccc1S2 | 741 |
| CNC(=O)C1CCCN(c2nc3ncn(CC(=O)Nc4ccccc4)c(=O)c3s2)C1 (configuration not stated) | 634 |
| COC(=O)Cn1nc2ccc(S(=O)(=O)N3CCC(C)CC3)cn2c1=O | 819 |
| CCN(C(=O)Cn1nc2cc(-c3ccccc3)nc(C)n2c1=O)c1ccccc1 | 985 |
| CCCNC(=O)CC1Sc2ncccc2N(CC)C1=O (configuration not stated) | 642 |
| CNC(=O)C1CCCN(C(=O)Nc2ccc(NC(=O)Nc3ccc(OC)cc3)cc2)C1 (configuration not stated) | 633 |
| O=C(NCCc1c[nH]c2ccc(Cl)cc12)c1ccncc1 | 639 |

| SMILES | RP-LC retention time [s] |
| --- | --- |
| O=C(NCCc1ccsc1)C(=O)Nc1cccc(N2CCCCC2=O)c1 | 719 |
| CN(C)C(=O)c1cc2c(s1)CCC(C(=O)NCc1ccccc1)C2 (configuration not stated) | 628 |
| COc1ccc(OC)c(NC(=O)c2ccc(S(=O)(=O)NC3CC3)cc2)c1 | 778 |
| CCC(=O)N1CCc2cc(S(=O)(=O)CCC(=O)N3CCN(c4ccc(C)cc4)C(C)C3)ccc21 (configuration not stated) | 704 |
| COc1ccc2c(c1)C1(CCN(C(=O)Cc3cccc(F)c3)C1)C(=O)N2C (configuration not stated) | 788 |
| COc1ccc(C(C)NC(=O)C2CC(=O)N(c3ccc4c(c3)CCN4C(C)=O)C2)cc1 (configuration not stated) | 688 |
| O=C(CSc1ncc(CO)n1Cc1ccc(F)cc1)N1CCCc2ccccc21 | 702 |
| O=C(NCCN1CCOCC1)C1CC(=O)N(CCc2c[nH]c3ccc(Cl)cc23)C1 (configuration not stated) | 604 |
| CCCCc1ccc(NC(=O)Cn2nc3c(Sc4ccccc4)nccn3c2=O)cc1 | 1100 |
| Cc1cccc(CNC(=O)C2CCCN(c3ccc(=O)n(-c4ccc(C)c(Cl)c4)n3)C2)c1 (configuration not stated) | 984 |
| COc1ccccc1N1CCN(C(=O)CC(C)S(=O)(=O)c2ccc3c(c2)CCN3C(C)=O)CC1 (configuration not stated) | 754 |
| CC(=O)N1CCc2cc(N3CC(C(=O)NCc4ccc(F)cc4)CC3=O)ccc21 (configuration not stated) | 740 |
| CN1C(=O)c2cc(C(=O)N3CCOCC3)nn2CC1(C)C(=O)NCc1ccc(F)cc1 (configuration not stated) | 644 |
| Cc1ccc2c(c1)OCC(=O)N2Cc1nc(-c2ccc3c(c2)OCO3)no1 | 1030 |
| COc1cccc(-c2nc(-c3cccc(-c4ccnn4C)c3)no2)c1OC | 1020 |
| O=c1n(Cc2cccc(Cl)c2)nc2ccc(S(=O)(=O)N3CCCC3)cn12 | 919 |
| COc1ccc(C2CC(=O)N(c3ccc(C(C)C)cc3)C(=O)C2)cc1OC | 987 |
| CCc1nc(-c2csc(S(=O)(=O)N3CCC(C(=O)NCc4ccc(F)cc4)CC3)c2)no1 | 935 |
| Cc1oc(-c2[nH]ncc2C(=O)N2CCCC2)cc1S(=O)(=O)N1CCN(C)CC1 | 574 |
| O=C(Cc1nc(-c2ccccn2)n[nH]1)Nc1cc(F)ccc1F | 652 |
| O=c1c2sccc2n(Cc2nc(-c3ccc(F)cc3)no2)c(=O)n1Cc1ccccc1 | 1030 |
| Cc1ccc(C)c(Nc2c(-c3cc(Br)ccc3O)nc3ncccn23)c1 | 1100 |

| SMILES | RP-LC retention time [s] |
| --- | --- |
| CSc1ccc(CNC(=O)c2cc3c(=O)n(Cc4ccccc4)ccc3nc2C)cc1 | 870 |
| CC(C)CNC(=O)NCCn1nnc2cc(C(=O)N3CCCC3)ccc21 | 618 |
| Cc1ccc(-c2nc(CCN(C)C(=O)NCCc3ccccc3)no2)cc1 | 956 |
| Cc1cccc(C)c1NC(=O)N(C)CC1CCOC1 (configuration not stated) | 666 |
| CCCn1c(CCNC(=O)c2ccc(OC)cc2)nc2cccnc21 | 662 |
| CCCNc1cc(N2CCC(CCC(=O)NCc3ccc(F)c(Cl)c3)CC2)ncn1 | 713 |
| Nc1nc(SCc2ccccc2Cl)c2[nH]cnc2n1 | 680 |
| COC(=O)c1c(-c2cccs2)csc1NC(=O)c1cc(OC)c(OC)c(OC)c1 | 1120 |
| Nc1nc(Cl)nc2c1ncn2[C@@H]1O[C@H](CO)[C@@H](O)[C@H]1O | 590 |
| COc1cc([C@@H]2c3cc4c(cc3[C@H](O)[C@@H](CO)[C@@H]2C(=O)N2CCCC2)OCO4)cc(OC)c1OC | 641 |
| O=C(C1CCCN(c2ncnc3c2nc2n3CCCCC2)C1)N1CCN(C2CCCCC2)CC1 (configuration not stated) | 604 |
| O=C(Cn1nc(S(=O)(=O)c2ccccc2)ccc1=O)N1CCN(c2ccccc2F)CC1 | 870 |
| Cc1nc2cc(-c3noc(Cc4c(F)cccc4Cl)n3)ccc2o1 | 1050 |
| Cc1noc(C)c1S(=O)(=O)N1CCC(Cc2nc(-c3ccncc3)n[nH]2)C1 (configuration not stated) | 619 |
| COCC(=O)NC1CCC12CCN(S(=O)(=O)c1c(C)noc1C)CC2 (configuration not stated) | 740 |
| Cc1ccccc1-c1noc(Cn2c(=O)n(Cc3ccc4c(c3)OCO4)c(=O)c3sccc32)n1 | 1110 |
| CN(C)S(=O)(=O)c1ccc(-c2nnc(C(=O)NC3CCCCC3)o2)cc1 | 886 |
| Cc1cc(N2CCN(S(=O)(=O)c3cc(F)ccc3C)CC2)nc(N2CCCC2)n1 | 783 |
| COc1ccc(NC(=O)Cn2c(=O)c3cc(C)nn3c3ncccc32)c(OC)c1 | 694 |
| CCOc1cccc(CN2Cc3ccccc3OC3(CCN(CCOC)CC3)C2)c1 | 619 |
| CCCc1ccc(S(=O)(=O)N(C)CC2CCOCC2)cc1 | 1020 |
